The values below come from publication PMC7057333 (ACS Omega, 2020).

Where two headings read alike, the source gives them in different places. Ends that are not written are not given here.

Experiment [1] addresses T1, LSD1 (Homo sapiens, UniProt O60341).
T1 construct: made in house; host or cells: Escherichia coli Rosetta 2 (pET15b)
Put plainly: SPR biosensor interaction kinetic assay with immobilized LSD1 (15 °C, TBS-T with DTT). The format is binding. Background: In SPR one partner is held on a chip, and binding of the other changes the refractive index at the surface.

Experiment [2] addresses T1, LSD1. The experiment is described as follows: HRP-coupled fluorescence LSD1 demethylation activity and inhibition assay, substrate H3_1-21 K4(Me). The format is biochemical.
Setting [3] is: 100 μM, supplement sheet SMILES and Activity, read-out: Inhibition at 100 μM (%).

As usually defined, the Kd is a measure of binding affinity in units of concentration. As to `C[C@H](N)C(=O)N[C@@H](CCCNC(=N)N)C(=O)N[C@H](C(=O)N[C@@H](CCCCN)C(=O)N[C@@H](CCC(N)=O)C(=O)N[C@H](C(=O)N[C@@H](C)C(=O)N[C@@H](CCCNC(=N)N)C(=O)N[C@@H](CCCCN)C(=O)N[C@@H](CO)C(=O)N[C@H](C(N)=O)[C@@H](C)O)[C@@H](C)O)[C@@H](C)O` [Peptide 9], the Kd in experiment [1] is over 100 µM.

In experiment [1], `CCCCCC[C@H](NC(=O)[C@@H](NC(=O)[C@H](CCCNC(=N)N)NC(=O)[C@H](C)N)[C@@H](C)O)C(=O)N[C@@H](CCC(N)=O)C(=O)N[C@H](C(=O)N[C@@H](C)C(=O)N[C@@H](CCCNC(=N)N)C(=O)N[C@@H](CCCCN)C(=O)N[C@@H](CO)C(=O)N[C@H](C(N)=O)[C@@H](C)O)[C@@H](C)O` [Peptide 16, ART(Aoc)QTARKST-NH2] yielded a Kd of over 200 µM.

`CSCC[C@H](NC(=O)[C@@H](NC(=O)[C@H](CCCNC(=N)N)NC(=O)[C@H](C)N)[C@@H](C)O)C(=O)N[C@@H](CCC(N)=O)C(=O)N[C@H](C(=O)N[C@@H](C)C(=O)N[C@@H](CCCNC(=N)N)C(=O)N[C@@H](CCCCN)C(=O)O)[C@@H](C)O` [Peptide 5] returned a Kd in experiment [1] of over 200 µM.

For the compound ARTMQTA-OH [Peptide 6, ARTMQTA-OH], the Kd in experiment [1] was over 200 µM.

In experiment [1], `CCCC[C@H](NC(=O)[C@@H](NC(=O)[C@H](CCCNC(=N)N)NC(=O)[C@H](C)N)[C@@H](C)O)C(=O)N[C@@H](CCC(N)=O)C(=O)N[C@H](C(=O)N[C@@H](C)C(=O)N[C@@H](CCCNC(=N)N)C(=O)N[C@@H](CCCCN)C(=O)N[C@@H](CO)C(=O)N[C@H](C(N)=O)[C@@H](C)O)[C@@H](C)O` [Peptide 15, ART(Nle)QTARKST-NH2] had a Kd of over 200 µM.

Usually inhibition stands for the drop in the measured response relative to a control, in per cent. Take `CSCC[C@@H]1NC(=O)[C@@H](NC(=O)[C@H](CCCNC(=N)N)NC(=O)[C@H](C)N)C/C=C\C[C@@H](C(=O)N[C@@H](C)C(=O)N[C@@H](CCCNC(=N)N)C(=O)N[C@@H](CCCCN)C(=O)N[C@@H](CO)C(=O)N[C@H](C(N)=O)[C@@H](C)O)NC(=O)[C@H](CCC(N)=O)NC1=O` [Peptide 21, ARG^alyMQG^alyARKST-NH2]: the inhibition at 100 µM in experiment [2] (setting [3]) and in experiment [2] (read-out: % inhibition at 100 μM) was 95% in each case. In experiment [1], this compound had a dissociation constant Kd of over 100 µM.

In turn, `C[C@H](N)C(=O)N[C@@H](CCCNC(=N)N)C(=O)N[C@H](C(=O)N[C@@H](CCc1ccccc1)C(=O)N[C@@H](CCC(N)=O)C(=O)N[C@H](C(=O)N[C@@H](C)C(=O)N[C@@H](CCCNC(=N)N)C(=O)N[C@@H](CCCCN)C(=O)N[C@@H](CO)C(=O)N[C@H](C(N)=O)[C@@H](C)O)[C@@H](C)O)[C@@H](C)O` [Peptide 17, ART(homoPhe)QTARKST-NH2] yielded a Kd in experiment [1] of over 200 µM.

`CSCC[C@H](NC(=O)[C@@H](NC(=O)[C@H](CCCNC(=N)N)NC(=O)[C@H](C)N)[C@@H](C)O)C(=O)N[C@@H](CCC(N)=O)C(=O)N[C@H](C(=O)N[C@@H](C)C(=O)N[C@@H](CCCNC(=N)N)C(=O)N[C@@H](CCCCN)C(=O)N[C@@H](CO)C(=O)N[C@H](C(=O)NCC(=O)NCC(=O)N[C@@H](CCCCN)C(=O)N[C@@H](C)C(=O)O)[C@@H](C)O)[C@@H](C)O` [Peptide 2] returned a Kd in experiment [1] of 5 µM.

The term IC50 denotes the concentration that gives 50% inhibition. For `CSCC[C@H](NC(=O)[C@@H](NC(=O)[C@H](CCCNC(=N)N)NC(=O)[C@H](C)N)[C@@H](C)O)C(=O)N[C@@H](CCC(N)=O)C(=O)N[C@H](C(=O)N[C@@H](C)C(=O)N[C@@H](CCCNC(=N)N)C(=O)N[C@@H](CCCCN)C(=O)N[C@@H](CO)C(=O)N[C@H](C(=O)O)[C@@H](C)O)[C@@H](C)O` [Peptide 4], the IC50 in experiment [2] is over 100 µM. The compound further returned a Kd in experiment [1] (KD, SPR, immobilized LSD1, 15 °C, ni = no interaction observed, ns = high nonspecific binding, weak interactions only approximated, highest concentration 200 μM) of about 140 µM.

For orientation: Ki means a dissociation constant, usually derived from enzyme kinetics or from competition with a known ligand. A lower Ki goes with a stronger hold on the target. Compound PRTMQTARKST-NH2 [Peptide 11] had a Ki in experiment [2] of 8 µM. Moreover, the inhibition at 100 µM in experiment [2] (setting [3]) was found to be 93%. The mode of inhibition result in experiment [2] (enzyme activity assay, inhibition kinetics) was “competitive inhibitor”. In addition, the IC50 in experiment [2] (supplement sheet SMILES and Activity, read-out: IC50) amounted to 12.5 µM. In addition, in experiment [1], the affinity, expressed as Kd, was 10 µM.
